# Data taken from article PMC12298351, “Novel 3,19-(N-Phenyl-3-(4-fluorophenyl)-pyrazole) Acetal of Andrographolide Promotes Cell Cycle Arrest and Apoptosis in MDA-MB-231 Breast Cancer Cells” (Pharmaceuticals, 2025).
# Key:
# [1] = DPPH radical scavenging assay; settings: 25 µM test compound, 0.1 mM DPPH, acetonitrile, 30 min
# Method: A stable free radical DPPH (2,2-Diphenyl-1-picrylhydrazyl) assay was employed to test the antioxidant activity of all the synthesized compounds. Concisely, 25 µM of the test compounds were dissolved in acetonitrile and combined with 0.1 mM of DPPH (in acetonitrile) in a 1:2 ratio (80 µL and 160 µL). Then, the mixture was left undisturbed in the dark for 30 min at room temperature. After 30 min, the absorbance of the solutions was instantly measured at 517 nm using a Varioskan Multiplate Reader (Thermo Fisher Scientific, Mumbai, India). Ascorbic acid (in acetonitrile) was used as the positive control, and andrographolide and isoandrogapholide (in acetonitrile) were used as the standards. The following equation was used to determine the DPPH radical scavenging activity:% Radical scavenging activity = (Ac − As)/Ac × 100 where Ac = the absorbance of the blank (DPPH solution), and As = the absorbance of the test samples
# [2] = test system: 60 human cancer cell lines; test: NCI single-dose study; format: cell-based; settings: single dose 10 µM, all 60 cell lines
# Description: All the synthesized compounds (1a–1j and 2a–2j) were initially assessed for their anticancer potential at the National Cancer Institute (NCI, USA) against a diverse panel of 60 human cancer cell lines, representing nine distinct cancer types including leukemia, non-small-cell lung, colon, CNS, melanoma, ovarian, renal, prostate, and breast. The testing protocol employed by the NCI encompasses two stages: initial assessment at a single dose and subsequent evaluation at five doses.
# Initially, a comprehensive anticancer screening of all twenty compounds (1a–1j and 2a–2j), including the parent compounds ADG and ISOADG, was conducted using a 10 µM dose across all 60 cell lines (a standardized protocol followed for the initial assessment of test compounds by the NCI). […] As a result, these ten compounds were chosen for five-dose studies.
SMILES,% DPPH radical scavenging activity [1],% growth inhibition [2]
"C=C1CC[C@@H]2[C@](C)(CO)[C@H](O)CC[C@@]2(C)[C@@H]1C/C=C1/C(=O)OC[C@H]1O [ADG, andrographolide]",58.74%,lower % growth inhibition
"CC12CC[C@@H]3[C@](C)(CO)[C@H](O)CC[C@@]3(C)[C@@H]1CC(C1=CCOC1=O)O2 (some centres unmarked) [ISOADG, isoandrographolide, reference compound]",57.94%,lower % growth inhibition
"O=C1O[C@H]([C@@H](O)CO)C(O)=C1O [ascorbic acid, reference compound]",69.26%,–
